Laboratory results from US20060142249A1, “Ophthalmic use” (priority 2002, published 2006).

How the values were obtained:
[1] = biological target: GABA-B (Homo sapiens, UniProt Q9UBS5); assay: Receptor profile, GABA-B; type: biochemical
[2] = system: GABA-C; assay: Receptor profile, GABA-C; type: biochemical

Sequence of GABA-B (Q9UBS5 15-961 limits assumed): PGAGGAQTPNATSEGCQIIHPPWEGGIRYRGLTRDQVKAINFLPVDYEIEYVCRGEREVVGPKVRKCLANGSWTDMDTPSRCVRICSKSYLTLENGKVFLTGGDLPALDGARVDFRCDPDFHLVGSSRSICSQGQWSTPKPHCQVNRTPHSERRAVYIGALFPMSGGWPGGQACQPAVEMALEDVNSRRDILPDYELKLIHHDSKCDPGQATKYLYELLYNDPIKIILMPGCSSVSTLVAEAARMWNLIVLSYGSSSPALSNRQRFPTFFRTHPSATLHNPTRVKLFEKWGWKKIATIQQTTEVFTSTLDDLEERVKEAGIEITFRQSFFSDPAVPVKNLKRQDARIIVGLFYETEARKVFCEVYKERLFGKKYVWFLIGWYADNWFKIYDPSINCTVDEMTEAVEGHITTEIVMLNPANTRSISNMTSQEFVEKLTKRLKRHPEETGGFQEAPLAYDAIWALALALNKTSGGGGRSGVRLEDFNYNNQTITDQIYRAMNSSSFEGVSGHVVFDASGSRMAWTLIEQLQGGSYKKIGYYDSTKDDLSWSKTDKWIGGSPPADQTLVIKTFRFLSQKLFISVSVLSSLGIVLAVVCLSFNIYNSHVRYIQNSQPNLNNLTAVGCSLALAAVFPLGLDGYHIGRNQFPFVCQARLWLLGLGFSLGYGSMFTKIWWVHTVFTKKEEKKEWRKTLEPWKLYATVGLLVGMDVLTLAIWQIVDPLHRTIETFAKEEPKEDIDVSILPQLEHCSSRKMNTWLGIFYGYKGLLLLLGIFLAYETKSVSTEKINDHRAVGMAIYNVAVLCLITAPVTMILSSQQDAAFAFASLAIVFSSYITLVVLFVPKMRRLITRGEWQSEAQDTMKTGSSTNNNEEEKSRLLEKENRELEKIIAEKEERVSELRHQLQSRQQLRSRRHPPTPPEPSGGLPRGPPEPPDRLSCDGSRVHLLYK
Sequence of GABA-B (O75899 42-941 partner): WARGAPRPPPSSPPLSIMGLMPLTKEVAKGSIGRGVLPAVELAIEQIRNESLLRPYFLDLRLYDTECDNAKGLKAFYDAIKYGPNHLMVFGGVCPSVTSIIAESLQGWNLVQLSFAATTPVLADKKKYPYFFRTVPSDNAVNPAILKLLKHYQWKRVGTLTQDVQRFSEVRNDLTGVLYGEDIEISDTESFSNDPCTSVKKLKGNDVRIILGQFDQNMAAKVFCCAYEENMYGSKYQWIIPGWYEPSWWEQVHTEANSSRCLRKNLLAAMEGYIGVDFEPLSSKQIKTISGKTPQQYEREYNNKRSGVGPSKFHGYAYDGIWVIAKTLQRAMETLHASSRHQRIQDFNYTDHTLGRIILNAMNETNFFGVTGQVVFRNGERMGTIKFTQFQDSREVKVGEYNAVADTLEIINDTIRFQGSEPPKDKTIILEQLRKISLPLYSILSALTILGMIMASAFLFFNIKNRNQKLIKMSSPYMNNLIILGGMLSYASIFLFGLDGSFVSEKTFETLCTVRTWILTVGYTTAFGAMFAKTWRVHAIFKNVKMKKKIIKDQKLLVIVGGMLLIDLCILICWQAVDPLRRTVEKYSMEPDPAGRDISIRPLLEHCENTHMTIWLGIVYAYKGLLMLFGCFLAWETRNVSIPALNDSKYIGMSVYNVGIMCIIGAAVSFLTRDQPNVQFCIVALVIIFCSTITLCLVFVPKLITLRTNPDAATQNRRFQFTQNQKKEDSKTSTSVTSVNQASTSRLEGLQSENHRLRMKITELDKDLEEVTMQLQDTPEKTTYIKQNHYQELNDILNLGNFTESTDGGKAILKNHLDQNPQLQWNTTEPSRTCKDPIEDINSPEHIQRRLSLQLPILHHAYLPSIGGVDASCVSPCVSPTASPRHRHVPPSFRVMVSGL

CP(=O)(O)C1=CCNCC1 [TPMPA]
GABA-B mode of action (agonist/antagonist) [1]: agonist | GABA-C mode of action (agonist/antagonist) [2]: antagonist
